# Measured values taken from the supplement of paper PMC10331698.
# ± gives the standard deviation of the averaged measurements.
# Legend:
# [1] = compound: C=C(C)C(=O)OCCC(F)(F)C(F)(F)C(F)(F)C(F)(F)C(F)(F)C(F)(F)F [6:2 Fluorotelomer methacrylate]; experiment: level (log10 ratio to DMSO vehicle control); higher = higher biomarker level / cell amount than vehicle control; settings: in DMSO
# Method: (§1)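 BioMAP Diversity Plus panel of 12 human primary cell co-culture systems (3C, 4H, LPS, SAg, BT, BF4T, BE3C, CASM3C, HDF3CGF, KF3CT, MyoF, Mphg). Compounds were added 1 h before stimulation and left for 24 h (MyoF 48 h; BT 72 h for soluble read-outs or 6 d for IgG). Biomarkers were read by ELISA, cytotoxicity by SRB, PBMC viability and proliferation by Alamar Blue. Each well value was divided by the mean of 8 DMSO control wells on the same plate and log10 transformed; duplicate blinded samples were tested at 4 concentrations.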
# [2] = compound: T1, C=CC(=O)OCC(F)(F)C(F)(F)C(F)(F)COC(=O)C=C [1H,1H,5H,5H-Perfluoro-1,5-pentanediol diacrylate]; experiment: as above; settings: 6700 nM; in DMSO
# Method: as §1
# [3] = compound: COC(=O)C(F)(F)C(F)(F)OC(F)(C(F)(F)F)C(F)(F)OC(F)=C(F)F [Methyl perfluoro(3-(1-ethenyloxypropan-2-yloxy)propanoate)]; experiment: as above; settings: in DMSO
# Method: as §1
# [4] = compound: FC(F)(F)C(F)(F)C(F)(F)C(F)(F)C(F)(F)C(F)(F)C(F)(F)I [1-Iodopentadecafluoroheptane]; experiment: as above; settings: in DMSO
# Method: as §1
# [5] = compound: FC(F)(F)C(F)(F)C(F)(F)C(F)(F)C(F)(F)C(F)(F)CC1CO1 [3-(Perfluorohexyl)-1,2-epoxypropane]; experiment: as above; settings: in DMSO
# Method: as §1
# [6] = compound: FC(F)(F)C(F)(F)C(F)(F)CC1CO1 [1H,1H-Heptafluorobutyl epoxide]; experiment: as above; settings: in DMSO
# Method: as §1
# Heptafluorobutyl iodide = compound: FC(F)(F)C(F)(F)C(F)(F)CI [Heptafluorobutyl iodide]; experiment: as above; settings: in DMSO
# Method: as §1
# [7] = compound: FC(F)(F)C(F)(F)CNCC(F)(F)C(F)(F)F [Bis(1H,1H-perfluoropropyl)amine]; experiment: as above; settings: in DMSO
# Method: as §1
# Octafluoroadipamide = compound: NC(=O)C(F)(F)C(F)(F)C(F)(F)C(F)(F)C(N)=O [Octafluoroadipamide]; experiment: as above; settings: in DMSO
# Method: as §1
# Nonafluoropentanamide = compound: NC(=O)C(F)(F)C(F)(F)C(F)(F)C(F)(F)F [Nonafluoropentanamide]; experiment: as above; settings: in DMSO
# Method: as §1
# [8] = compound: NC(=O)C(F)(F)C(F)(F)C(F)(F)C(F)F; experiment: as above; settings: in DMSO
# Method: as §1
# [9] = compound: NS(=O)(=O)C(F)(F)C(F)(F)C(F)(F)C(F)(F)C(F)(F)C(F)(F)F [Perfluorohexanesulfonamide]; experiment: as above; settings: in DMSO
# Method: as §1
# [10] = compound: O=C(O)C(F)(F)C(F)(F)C(F)(F)C(F)(F)C(F)(F)C(F)(F)C(F)(F)C(F)(F)C(F)(F)C(F)F [11-H-Perfluoroundecanoic acid]; experiment: as above; settings: in DMSO
# Method: as §1
# [11] = compound: O=C(O)C=CC(F)(C(F)(F)F)C(F)(F)F [3-(Perfluoroisopropyl)-2-propenoic acid]; experiment: as above; settings: in DMSO
# Method: as §1
# [12] = compound: O=S(=O)(Cl)C(F)(F)C(F)(F)C(F)(F)C(F)(F)C(F)(F)C(F)(F)C(F)(F)C(F)(F)F [Perfluoro-1-octanesulfonyl chloride]; experiment: as above; settings: in DMSO
# Method: as §1
# [13] = compound: O=S(=O)(F)C(F)(F)C(F)(F)C(F)(F)C(F)(F)C(F)(F)C(F)(F)C(F)(F)C(F)(F)F [Perfluorooctanesulfonyl fluoride]; experiment: as above; settings: in DMSO
# Method: as §1
# [14] = compound: O=S(=O)(O)C(F)(F)C(F)(F)C(F)(F)C(F)(F)C(F)(F)C(F)(F)C(F)(F)C(F)(F)C(F)(F)C(F)(F)F [Sodium perfluorodecanesulfonate]; experiment: as above; settings: in DMSO
# Method: as §1
# [15] = compound: O=S(=O)(O)CCC(F)(F)C(F)(F)C(F)(F)C(F)(F)C(F)(F)C(F)(F)F [6:2 Fluorotelomer sulfonic acid]; experiment: as above; settings: in DMSO
# Method: as §1
# Hexafluoroamylene glycol = compound: OCC(F)(F)C(F)(F)C(F)(F)CO [Hexafluoroamylene glycol]; experiment: as above; settings: in DMSO
# Method: as §1
# [16] = compound: T1, 1H,1H,5H,5H-Perfluoro-1,5-pentanediol diacrylate; experiment: LOEC (log10 uM (lowest observed effect concentration))
# Method: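 BioMAP Diversity Plus panel in human primary cell co-cultures, 4 concentrations in duplicate blinded samples. Responses are log10 fold change versus DMSO control, processed with tcpl v2.1.0. A hit is called when responses at any concentration exceed the cutoff (the larger of 3*bmad or log10(1.2)); the lowest observed effect concentration (modl_ga, log10 uM) is reported for hits.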
test system,measurement,setting,value
SAg:Proliferation,level (log10),[1]; 6700 nM,-0.027 ± 0.034
same,level (log10),[1]; 20000 nM,-0.0435 ± 0.042
same,level (log10),[1]; 60000 nM,-0.0375 ± 0.03
same,level (log10),[2],-0.421 ± 0.035
same,level (log10),[3]; 6700 nM,-0.003 ± 0.018
same,level (log10),[3]; 20000 nM,0.0525 ± 0.057
same,level (log10),[4]; 6700 nM,0.0055 ± 0.043
same,level (log10),[4]; 20000 nM,-0.0105 ± 0.026
same,level (log10),[5]; 6700 nM,0.013 ± 0.014
same,level (log10),[5]; 20000 nM,-0.0105 ± 0.019
same,level (log10),[5]; 60000 nM,0.013 ± 0.051
same,level (log10),[6]; 6700 nM,-0.0295 ± 0.059
same,level (log10),[6]; 20000 nM,0.017 ± 0.059
same,level (log10),[6]; 60000 nM,0.055 ± 0.054
same,level (log10),Heptafluorobutyl iodide; 6700 nM,-0.056 ± 0.037
same,level (log10),Heptafluorobutyl iodide; 20000 nM,0.029 ± 0.028
same,level (log10),Heptafluorobutyl iodide; 60000 nM,-0.072 ± 0.0042
same,level (log10),[7]; 6700 nM,-0.0275 ± 0.012
same,level (log10),[7]; 20000 nM,-0.0025 ± 0.052
same,level (log10),[7]; 60000 nM,0.0295 ± 0.076
same,level (log10),Octafluoroadipamide; 6700 nM,0.022 ± 0.035
same,level (log10),Octafluoroadipamide; 20000 nM,-0.0255 ± 0.005
same,level (log10),Octafluoroadipamide; 60000 nM,0.033 ± 0.0099
same,level (log10),Nonafluoropentanamide; 6700 nM,-0.01 ± 0.052
same,level (log10),Nonafluoropentanamide; 20000 nM,-0.05 ± 0.034
same,level (log10),Nonafluoropentanamide; 60000 nM,-0.0945 ± 0.1
same,level (log10),[8]; 6700 nM,-0.0135 ± 0.018
same,level (log10),[8]; 20000 nM,0.0105 ± 0.0064
same,level (log10),[8]; 60000 nM,0.033 ± 0.018
same,level (log10),[9]; 6700 nM,0.0045 ± 0.0035
same,level (log10),[9]; 20000 nM,-0.016 ± 0.013
same,level (log10),[9]; 60000 nM,-0.0695 ± 0.019
same,level (log10),[10]; 6700 nM,-0.0145 ± 0.03
same,level (log10),[10]; 20000 nM,0.019 ± 0.0071
same,level (log10),[11]; 6700 nM,0.009 ± 0.016
same,level (log10),[11]; 20000 nM,-0.008 ± 0.037
same,level (log10),[11]; 60000 nM,0.008 ± 0.04
same,level (log10),[12]; 6700 nM,0.0235 ± 0.044
same,level (log10),[12]; 20000 nM,0.0205 ± 0.04
same,level (log10),[12]; 60000 nM,0.0395 ± 0.036
same,level (log10),[13]; 6700 nM,-0.0275 ± 0.0035
same,level (log10),[13]; 20000 nM,-0.0095 ± 0.049
same,level (log10),[13]; 60000 nM,0.0025 ± 0.019
same,level (log10),[14]; 1500 nM,-0.0065 ± 0.0035
same,level (log10),[14]; 4400 nM,-0.006 ± 0.0042
same,level (log10),[14]; 13000 nM,-0.024 ± 0.034
same,level (log10),[14]; 40000 nM,-0.023 ± 0.035
same,level (log10),[15]; 6700 nM,-0.019 ± 0.027
same,level (log10),[15]; 20000 nM,-0.0255 ± 0.023
same,level (log10),[15]; 60000 nM,-0.0225 ± 0.0035
same,level (log10),Hexafluoroamylene glycol; 6700 nM,-0.024 ± 0.041
same,level (log10),Hexafluoroamylene glycol; 20000 nM,-0.0395 ± 0.013
same,level (log10),Hexafluoroamylene glycol; 60000 nM,-0.039 ± 0.0042
hDFCGF ICAM1 down,LOEC (log10 uM),[16],0.301
hDFCGF IL8 down,LOEC (log10 uM),[16],0.845
hDFCGF MMP1 down,LOEC (log10 uM),[16],0.845
hDFCGF SRB down,LOEC (log10 uM),[16],0.573 ± 0.39
hDFCGF TIMP1 down,LOEC (log10 uM),[16],0.573 ± 0.39
lMphg:CCL3/MIP-1alpha,level (log10),[1]; 6700 nM,0.0005 ± 0.066
same,level (log10),[1]; 20000 nM,-0.0185 ± 0.061
same,level (log10),[1]; 60000 nM,0.003 ± 0.04
same,level (log10),[2],-0.008 ± 0.0057
same,level (log10),[3]; 6700 nM,0.032 ± 0.031
same,level (log10),[3]; 20000 nM,0.0655 ± 0.026
same,level (log10),[4]; 6700 nM,0.0225 ± 0.023
same,level (log10),[4]; 20000 nM,0.0175 ± 0.049
same,level (log10),[5]; 6700 nM,-0.0345 ± 0.035
same,level (log10),[5]; 20000 nM,-0.029 ± 0.034
same,level (log10),[5]; 60000 nM,-0.009 ± 0.021
same,level (log10),[6]; 6700 nM,-0.039 ± 0.0057
same,level (log10),[6]; 20000 nM,-0.0135 ± 0.019
same,level (log10),[6]; 60000 nM,0.0135 ± 0.015
same,level (log10),Heptafluorobutyl iodide; 6700 nM,0.023 ± 0.079
same,level (log10),Heptafluorobutyl iodide; 20000 nM,0.0315 ± 0.11
same,level (log10),Heptafluorobutyl iodide; 60000 nM,0.06 ± 0.045
same,level (log10),[7]; 6700 nM,0.039 ± 0.016
same,level (log10),[7]; 20000 nM,0.002 ± 0.014
same,level (log10),[7]; 60000 nM,-0.009 ± 0.0085
same,level (log10),Octafluoroadipamide; 6700 nM,0.0425 ± 0.032
same,level (log10),Octafluoroadipamide; 20000 nM,0.019 ± 0.047
same,level (log10),Octafluoroadipamide; 60000 nM,0.0295 ± 0.013
same,level (log10),Nonafluoropentanamide; 6700 nM,0.0025 ± 0.057
same,level (log10),Nonafluoropentanamide; 20000 nM,-0.0015 ± 0.06
same,level (log10),Nonafluoropentanamide; 60000 nM,0 ± 0.045
same,level (log10),[8]; 6700 nM,-0.039 ± 0.0099
same,level (log10),[8]; 20000 nM,-0.0295 ± 0.018
same,level (log10),[8]; 60000 nM,-0.006 ± 0.0028
same,level (log10),[9]; 6700 nM,-0.0025 ± 0.00071
same,level (log10),[9]; 20000 nM,-0.034 ± 0.044
same,level (log10),[9]; 60000 nM,-0.0145 ± 0.0092
same,level (log10),[10]; 6700 nM,-0.023 ± 0.023
same,level (log10),[10]; 20000 nM,-0.027 ± 0.0057
same,level (log10),[11]; 6700 nM,-0.031 ± 0.018
same,level (log10),[11]; 20000 nM,-0.0285 ± 0.016
same,level (log10),[11]; 60000 nM,-0.0125 ± 0.016
same,level (log10),[12]; 6700 nM,0.038 ± 0.03
same,level (log10),[12]; 20000 nM,0.004 ± 0.041
same,level (log10),[12]; 60000 nM,0.025 ± 0.018
same,level (log10),[13]; 6700 nM,-0.0035 ± 0.053
same,level (log10),[13]; 20000 nM,-0.004 ± 0.021
same,level (log10),[13]; 60000 nM,-0.001 ± 0.017
same,level (log10),[14]; 1500 nM,-0.008 ± 0.025
same,level (log10),[14]; 4400 nM,0.0015 ± 0.012
same,level (log10),[14]; 13000 nM,0.0195 ± 0.047
same,level (log10),[14]; 40000 nM,0.0425 ± 0.0035
same,level (log10),[15]; 6700 nM,0.014 ± 0.021
same,level (log10),[15]; 20000 nM,0.072 ± 0.02
same,level (log10),[15]; 60000 nM,0.0565 ± 0.039
same,level (log10),Hexafluoroamylene glycol; 6700 nM,0.03 ± 0.072
same,level (log10),Hexafluoroamylene glycol; 20000 nM,-0.0125 ± 0.023
same,level (log10),Hexafluoroamylene glycol; 60000 nM,0.023 ± 0.034
